{
  "source": "patent US20130280204A1",
  "about": "(priority 2007, published 2013)",
  "tested_on": "Wuhan E119V",
  "type": "cell-based, influenza A virus H3N2",
  "details": "read-out: IC50 (nM zanamivir) A/Wuhan/359/95 (second line)",
  "data": [
    {"substance": "3-Acetamido-2-(1-(((4-(aminomethyl)phenyl)carbamoyl)oxy)-2,3-dihydroxypropyl)-4-guanidino-3,4-dihydro-2H-pyran-6-carboxylic acid [compound 4]", "values": [
      {"measurement": "IC50", "result": "51 ± 5", "unit": "nM"}
    ]}
  ]
}
